# Legend:
# [1] = Dynamic vapour sorption (DVS) study; format: physicochemical; conditions: for Moisture sorption (weight gain) at 90% relative humidity: DVS, 90% RH
# Procedure: UK. The sample weights were taken in the range of 30-50 mg and below experimental parameters were kept constant for all samples.
# [2] = Stability of co-crystals stored at 98% relative humidity, checked by XRD; format: physicochemical; conditions: 98% RH
# Procedure: The co-crystals were stored at 98% relative humidity and the stability was evaluated after 24 hours using powder X-ray diffraction. […] This stability of the co-crystal in the presence of high amounts of atmospheric moisture is responsible for maintenance of the effervescent action. The stability of the co-crystals to moisture was investigated by storing the co-crystals at 98% relative humidity and the following results were observed. The co-crystal samples were analysed with XRD to check whether the co-crystal retained its structure or became dissociated or degraded over time on exposure to the atmosphere. Stability of Co-Crystals at 98% RH
Structure (SMILES),"Behaviour in DVS study (in words) ([1]; DVS 0-90% RH, 25 C)","Weight gain due to moisture sorption (total) ([1]; DVS 0-90% RH, 25 C)",Change In Mass (%) ([1]; Target Relative Humidity 0.0%),Change In Mass (%) ([1]; Target Relative Humidity 10.0%),Change In Mass (%) ([1]; Target Relative Humidity 20.0%),Change In Mass (%) ([1]; Target Relative Humidity 30.0%),Change In Mass (%) ([1]; Target Relative Humidity 40.0%),Change In Mass (%) ([1]; Target Relative Humidity 50.0%),Change In Mass (%) ([1]; Target Relative Humidity 60.0%),Change In Mass (%) ([1]; Target Relative Humidity 70.0%),Change In Mass (%) ([1]; Target Relative Humidity 80.0%),Change In Mass (%) ([1]; Target Relative Humidity 90.0%),Moisture sorption (weight gain) at 90% relative humidity ([1]; 25 C),XRD results (co-crystal stability) ([2]; Day 14),XRD results (co-crystal stability) ([2]; Day 18)
O=C(O)CC(O)(CC(=O)O)C(=O)O [citric acid],undergoes liquefaction,31%,0.00%,0.00%,0.00%,0.00%,0.00%,0.00%,0.01%,0.02%,4.65%,31.21%,,,
"NC(=O)c1cccnc1.NC(=O)c1cccnc1.O=C(O)CC(O)(CC(=O)O)C(=O)O [Citric acid:nicotinamide, 1:2 co-crystal]",,,0.0002%,0.0044%,0.0070%,0.0108%,0.0145%,0.0203%,0.0318%,0.0561%,0.0976%,0.2319%,,,
O=C([O-])O.[Na+] [sodium bicarbonate],,,−0.0001%,0.0027%,0.0042%,0.0056%,0.0074%,0.0103%,0.0143%,0.0240%,0.0746%,0.3236%,0.32%,,
"NC(=O)c1cccnc1.NC(=O)c1cccnc1.O=C(O)CC(O)(CC(=O)O)C(=O)O [Citric acid-nicotinamide, 1:2, citric acid-nicotinamide 1:2 co-crystal]",non-hygroscopic,,,,,,,,,,,,0.23%,Stable,Stable

# From patent US10420718B2, “Effervescent compositions containing co-crystals of the acid part” (University of Bradford, priority 2014, dated 2019)
